Source: paper PMC3779320, “Bub3 reads phosphorylated MELT repeats to promote spindle assembly checkpoint signaling” (eLife, 2013)
Substitutions are numbered along the chain they refer to. Square brackets hold non-standard residues; d marks the D form. Peptide text beside a SMILES is read from it. pT = C[C@@H](OP(=O)(O)O)[C@H](N)C(=O)O

Experiments:
Bub3 = target: T1, Bub3 (Saccharomyces cerevisiae, UniProt P26449); experiment: ITC binding to Bub3 in the absence of Bub1; conditions: Bub3 without Bub1 compared to the Bub1–Bub3 complex
T1 construct: S. cerevisiae Bub1^289–359 and for full length Bub3; made in house
T1 sequence (P26449 1-341): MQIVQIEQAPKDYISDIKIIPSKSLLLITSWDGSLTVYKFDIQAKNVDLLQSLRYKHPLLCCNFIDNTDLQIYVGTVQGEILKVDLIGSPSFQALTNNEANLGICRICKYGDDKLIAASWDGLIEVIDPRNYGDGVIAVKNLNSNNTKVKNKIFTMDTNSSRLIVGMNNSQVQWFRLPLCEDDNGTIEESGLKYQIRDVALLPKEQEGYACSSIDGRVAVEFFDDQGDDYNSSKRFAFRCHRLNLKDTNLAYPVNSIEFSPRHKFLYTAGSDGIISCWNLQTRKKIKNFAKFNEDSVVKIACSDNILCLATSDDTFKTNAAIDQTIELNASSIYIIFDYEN
Description: However, as already anticipated in the Introduction, several lines of evidence indicate that Bub1 contributes to this interaction (Discussion). To test this possibility formally, we measured the binding of purified Bub3 (Figure 1D) to the MELT2^P peptide in the absence of Bub1.
Binding isotherm was measured at 25°C by isothermal titration calorimetry on a MicroCal ITC200 device (GE Healthcare, Piscataway, NJ). All samples were extensively dialysed into fresh GF buffer (20 mM Tris pH7.5, 150 mM NaCl, 1 mM DTE). In each titration, the Bub1^289–359–Bub3 in the cell (at a 30 µM concentration) was titrated with thirty-five 2-µl injections (at 90 s intervals) of the indicated synthetic MELT^P peptides (at a concentration of 400 µM). The injections were continued beyond saturation levels to allow for determination of heats of ligand dilution. Data were fitted by least-square procedures to a single-site binding model using ORIGIN 5.0 software package (MicroCal, Northampton, MA).

Bub1^289–359–Bub3^R217A = target: T2, Bub1^289–359–Bub3^R217A (Saccharomyces cerevisiae, UniProt P26449+P41695, R217A); experiment: ITC binding to Bub1^289–359–Bub3^R217A; conditions: Bub3 R217A compared with wild type (13- to 25-fold for R217A or R239A)
T2 construct: S. cerevisiae Bub1^289–359 and for full length Bub3; GST (N, cleaved yes); made in house; host or cells: E. coli BL21 DE3 plysS
T2 sequence (P26449 1-341 R217A): T1 sequence (P26449 1-341) with R217A
T2 sequence (P41695 289-359): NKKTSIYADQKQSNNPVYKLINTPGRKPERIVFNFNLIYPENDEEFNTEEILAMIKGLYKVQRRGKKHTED
Source text: Because the presence of a phosphate on Thr172^Spc105/Knl1 is essential for high-affinity binding of ScBub1^289–359–Bub3 to MELT^P peptides (Figure 1), we concentrated our mutational analysis on two residues that are directly implicated in the recognition of the peptide’s phospho-threonine, Arg217^Bub3 and Arg239^Bub3. Positively charged residues are invariant at these positions of the Bub3 alignment (Figure 2C). We generated single or double alanine mutants of Arg217^Bub3 and Arg239^Bub3 in the context of ScBub1^289–359–Bub3 and tested their binding affinity for the MELT2^P peptide by ITC.
cDNA sequences coding for S. cerevisiae Bub1^289–359 and for full length Bub3 were subcloned in the first and second cassettes of pGEX-6P-2rbs vector ([Ciferri et al., 2005]). In this construct, the cDNA encoding Bub1^289–359 was sub-cloned in frame with the gene encoding GST and a cleavage site for PreScission protease, and was translated from the first ribosome-binding site (rbs). Untagged Bub3 was subcloned downstream of the second rbs in the same vector. Expression was carried out in BL21 DE3 plysS cells in LB medium by auto-induction with 0.3% lactose at 18°C for approximately 16 hr. […]
Binding isotherm was measured at 25°C by isothermal titration calorimetry on a MicroCal ITC200 device (GE Healthcare, Piscataway, NJ). […]

CC[C@H](C)[C@H](NC(=O)[C@H](CO)NC(=O)[C@H](CCCNC(=N)N)NC(=O)[C@@H]1CCCN1C(=O)[C@H](Cc1ccccc1)NC(=O)[C@@H](NC(=O)[C@H](CCC(=O)O)NC(=O)[C@@H](NC(=O)[C@H](CCSC)NC(=O)[C@H](CCC(=O)O)NC(=O)[C@H](CCSC)NC(=O)[C@H](CO)NC(=O)[C@@H](NC(=O)[C@@H]1CCCN1C(=O)[C@H](CC(=O)O)NC(C)=O)[C@@H](C)O)[C@@H](C)OP(=O)(O)O)C(C)C)C(=O)N[C@@H](CCCNC(=N)N)C(=O)N[C@@H](CCC(N)=O)C(=O)N[C@@H](CCCCN)C(=O)N[C@@H](CC(N)=O)C(N)=O [MELT2^P] (Ac-DPTSMEM[pT]EVFPRSIRQKN-NH2; N-terminus and C-terminus assumed)
fold reduction in binding affinity (Bub3): 10 fold | fold reduction in binding affinity (Bub1^289–359–Bub3^R217A): 13 fold
